Converted amounts (≈) assume the structure as drawn. The source made the active and inactive calls. The rule behind the calls is not given here.
How the values were obtained:
[1] = tested on: Mycobacterium tuberculosis; experiment: Antitubercular activity against Mycobacterium tuberculosis H37Rv incubated for 7 days by alamar blue assay; format: functional; details: 168 h, time 7 day
[2] = Metabolic stability in mouse liver microsomes assessed as half-life at 2 uM preincubated for 60 mins followed by NADPH addition and measured upto 60 mins by LC-MS analysis; format: ADME, Microsome; details: time < 120 min
[3] = Dose normalized AUClast in BALB/c mouse at 5 mg/kg, iv measured upto 24 hrs by LC-MS/MS analysis; format: ADME, organism-based; details: in vivo
[4] = Cmax in BALB/c mouse at 30 mg/kg, po measured upto 24 hrs by LC-MS/MS analysis; format: ADME, organism-based; details: in vivo
[5] = AUCinfinity in BALB/c mouse at 5 mg/kg, iv measured upto 24 hrs by LC-MS/MS analysis; format: ADME, organism-based; details: in vivo
[6] = Half-life in BALB/c mouse at 5 mg/kg, iv measured upto 24 hrs by LC-MS/MS analysis; format: ADME, organism-based; details: in vivo
[7] = AUClast in BALB/c mouse at 5 mg/kg, iv measured upto 24 hrs by LC-MS/MS analysis; format: ADME, organism-based; details: in vivo
Mycobacterium marinum [8] = experiment: Antitubercular activity against Mycobacterium marinum infected in zebrafish larvae assessed as increase survival rate at 12.5 to 200 uM measured over 10 days by qPCR analysis; format: functional, organism-based; details: dose 12.5-200 µM, time 10.0 day
[9] = AUCinfinity in BALB/c mouse at 30 mg/kg, po measured upto 24 hrs by LC-MS/MS analysis; format: ADME, organism-based; details: in vivo
Mycobacterium marinum [10] = experiment: Antitubercular activity against Mycobacterium […] assessed as bactericidal effect by measuring colony forming unit at 200 uM measured over 10 days; format: functional; details: time 10 day
[11] = AUClast in BALB/c mouse at 30 mg/kg, po measured upto 24 hrs by LC-MS/MS analysis; format: ADME, organism-based; details: in vivo
[12] = molecular target: Voltage-gated inwardly rectifying potassium channel KCNH2 (Homo sapiens, UniProt Q12809); experiment: Inhibition of human ERG expressed in HEK293 cells by whole cell manual patch clamp method; format: toxicity, cell-based
[13] = Observed mean residence time infinity in BALB/c mouse at 5 mg/kg, iv measured upto 24 hrs by LC-MS/MS analysis; format: ADME, organism-based; details: in vivo
Mycobacterium marinum [14] = experiment: Antitubercular activity against Mycobacterium marinum infected in adult zebrafish assessed as reduction in bacterial count by measuring CFU at 100 uM measured over 10 days; format: functional; details: time 10 day
[15] = Observed extrapolated AUC in BALB/c mouse at 5 mg/kg, iv measured upto 24 hrs by LC-MS/MS analysis; format: ADME, organism-based; details: in vivo
[16] = Metabolic stability in human liver microsomes assessed as half-life at 2 uM preincubated for 60 mins followed by NADPH addition and measured upto 60 mins by LC-MS analysis; format: ADME, Microsome; details: time < 120 min
[17] = Metabolic stability in human liver microsomes assessed as intrinsic clearance per mg protein at 2 uM preincubated for 60 mins followed by NADPH addition and measured upto 60 mins by LC-MS analysis; format: ADME, Microsome; details: time < 120 min, read-out: CLH
Mycobacterium marinum [18] = experiment: Antitubercular activity against Mycobacterium marinum infected in adult zebrafish assessed as reduction in bacterial count by measuring CFU at 200 uM measured over 10 days; format: functional; details: time 10 day
[19] = Cytotoxicity against HK-2 cells incubated for 48 hrs by CCK8 assay; format: toxicity, cell-based; details: human
[20] = Dose normalized AUClast in BALB/c mouse at 30 mg/kg, po measured upto 24 hrs by LC-MS/MS analysis; format: ADME, organism-based; details: in vivo
[21] = Cytotoxicity against african green monkey Vero cells incubated for 48 hrs by CCK8 assay; format: toxicity, cell-based, Chlorocebus sabaeus
[22] = Observed mean residence time infinity in BALB/c mouse at 30 mg/kg, po measured upto 24 hrs by LC-MS/MS analysis; format: ADME, organism-based; details: in vivo
[23] = Metabolic stability in mouse liver microsomes assessed as intrinsic clearance per mg protein at 2 uM preincubated for 60 mins followed by NADPH addition and measured upto 60 mins by LC-MS analysis; format: ADME, Microsome; details: time < 120 min, read-out: CLH
[24] = Oral bioavailability in BALB/c mouse at 30 mg/kg measured upto 24 hrs by LC-MS/MS analysis; format: ADME, organism-based; details: in vivo
[25] = Observed clearance in BALB/c mouse at 5 mg/kg, iv measured upto 24 hrs by LC-MS/MS analysis; format: ADME, organism-based; details: in vivo
[26] = Metabolic stability in human liver microsomes assessed as substrate remaining at 2 uM preincubated for 60 mins followed by NADPH addition and measured upto 60 mins by LC-MS analysis; format: ADME, Microsome; details: time < 120 min, read-out: Stability
[27] = Observed volume of distribution at steady state in BALB/c mouse at 5 mg/kg, iv measured upto 24 hrs by LC-MS/MS analysis; format: ADME, organism-based; details: in vivo, read-out: Vdss
Mycobacterium marinum [28] = experiment: Antitubercular activity against Mycobacterium […] assessed as bactericidal effect by measuring colony forming unit at 100 uM measured over 10 days; format: functional; details: time 10 day
[29] = Metabolic stability in mouse liver microsomes assessed as substrate remaining at 2 uM preincubated for 60 mins followed by NADPH addition and measured upto 60 mins by LC-MS analysis; format: ADME, Microsome; details: time < 120 min, read-out: Stability
[30] = Tmax in BALB/c mouse at 30 mg/kg, po measured upto 24 hrs by LC-MS/MS analysis; format: ADME, organism-based; details: in vivo
[31] = Initial plasma concentration in BALB/c mouse at 5 mg/kg, iv measured upto 24 hrs by LC-MS/MS analysis; format: ADME, organism-based
[32] = Half-life in BALB/c mouse at 30 mg/kg, po measured upto 24 hrs by LC-MS/MS analysis; format: ADME, organism-based; details: in vivo
Mycobacterium marinum [33] = experiment: Antitubercular activity against Mycobacterium marinum infected in adult zebrafish assessed as reduction in bacterial count by measuring CFU at 50 uM measured over 10 days; format: functional; details: time 10 day
[34] = Observed extrapolated AUC in BALB/c mouse at 30 mg/kg, po measured upto 24 hrs by LC-MS/MS analysis; format: ADME, organism-based; details: in vivo
Mycobacterium marinum [35] = experiment: Antitubercular activity against Mycobacterium marinum infected in adult zebrafish assessed as reduction in bacterial count by measuring CFU at 400 uM measured over 10 days; format: functional; details: time 10 day
[36] = Selectivity index, ratio of IC50 for african green monkey Vero cells to IC50 for Mycobacterium tuberculosis H37Rv; format: toxicity; details: read-out: Ratio IC50
[37] = Stability in mouse plasma by MS analysis; format: ADME, cell-free
[38] = tested on: Mycobacterium tuberculosis; experiment: Binding affinity to Mycobacterium tuberculosis AccD5 at 10 uM by SPR analysis

Chain of Voltage-gated inwardly rectifying potassium channel KCNH2 (Q12809 whole entry): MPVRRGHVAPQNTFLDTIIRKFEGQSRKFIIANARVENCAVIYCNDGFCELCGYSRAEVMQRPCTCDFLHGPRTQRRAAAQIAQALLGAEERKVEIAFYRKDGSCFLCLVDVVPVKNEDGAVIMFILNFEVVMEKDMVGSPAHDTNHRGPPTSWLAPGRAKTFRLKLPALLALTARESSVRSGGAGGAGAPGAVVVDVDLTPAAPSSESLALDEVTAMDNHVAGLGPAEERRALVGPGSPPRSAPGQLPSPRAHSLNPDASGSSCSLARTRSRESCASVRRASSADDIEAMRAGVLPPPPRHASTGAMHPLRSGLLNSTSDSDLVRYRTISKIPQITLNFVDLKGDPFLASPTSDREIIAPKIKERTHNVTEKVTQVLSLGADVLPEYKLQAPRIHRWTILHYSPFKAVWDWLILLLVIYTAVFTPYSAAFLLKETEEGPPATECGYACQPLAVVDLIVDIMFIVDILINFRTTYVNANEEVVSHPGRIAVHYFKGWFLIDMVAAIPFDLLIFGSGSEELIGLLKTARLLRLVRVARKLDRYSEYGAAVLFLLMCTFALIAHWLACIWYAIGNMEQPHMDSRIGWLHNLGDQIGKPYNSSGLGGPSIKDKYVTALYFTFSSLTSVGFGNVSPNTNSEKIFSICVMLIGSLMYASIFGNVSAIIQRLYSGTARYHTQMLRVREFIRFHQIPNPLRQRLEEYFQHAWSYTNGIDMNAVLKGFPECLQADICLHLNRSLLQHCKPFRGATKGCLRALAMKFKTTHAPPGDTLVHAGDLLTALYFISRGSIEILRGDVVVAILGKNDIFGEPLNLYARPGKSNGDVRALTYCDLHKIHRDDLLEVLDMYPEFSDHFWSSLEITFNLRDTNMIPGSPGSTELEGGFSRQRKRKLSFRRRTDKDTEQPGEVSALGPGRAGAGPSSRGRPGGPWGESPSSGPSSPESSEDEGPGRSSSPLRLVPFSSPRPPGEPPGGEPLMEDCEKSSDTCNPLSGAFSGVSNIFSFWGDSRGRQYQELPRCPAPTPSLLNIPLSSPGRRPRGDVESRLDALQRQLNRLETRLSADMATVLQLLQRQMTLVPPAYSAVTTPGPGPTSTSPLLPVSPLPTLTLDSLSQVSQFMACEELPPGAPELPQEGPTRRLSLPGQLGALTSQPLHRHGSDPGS

**Q.** What does the source list for `CCCSc1nc2c(c(=O)[nH]1)[C@@H](c1ccc(OC)cc1)CC(=O)N2`?
**A.** MIC [1]: 0.06 µg/mL (≈ 0.174 µM); half-life at 2 µM [2]: 6.16 h; AUClast/dose [3]: 23295 kg·ng·h/mL/mg; Cmax [4]: 43300 ng/mL; AUC(0-inf) [5]: 125 µg·h/mL; half-life [6]: 7.01 h; AUC(0-t) at 24 h [7]: 116 µg·h/mL; Activity (Mycobacterium marinum [8]): Active; AUC(0-inf) [9]: 424 µg·h/mL; Activity (Mycobacterium marinum [10]): <80 CFU; AUC(0-t) at 24 h [11]: 410 µg·h/mL; IC50 [12]: 24.4 µM; MRT inf [13]: 7.8 h; Activity (Mycobacterium marinum [14]): 8 10^3CFU; %AUCextra [15]: 6.41%; half-life at 2 µM [16]: 2 h; microsomal CLint at 2 µM [17]: 11.5 µL/min/mg; Activity (Mycobacterium marinum [18]): 1.9 10^5CFU; IC50 at 48 h [19]: 32.5 µg/mL (≈ 94 µM); AUClast/dose [20]: 13676 kg·ng·h/mL/mg; IC50 at 48 h [21]: > 64 µg/mL; MRT inf [22]: 6.85 h; microsomal CLint at 2 µM [23]: 3.75 µL/min/mg; bioavailability [24]: 56.7%; clearance [25]: 0.673 mL/min/kg; remaining at 1 h, 2 µM [26]: 69.8%; Vd [27]: 0.312 L/kg; Activity (Mycobacterium marinum [28]): <80 CFU; remaining at 1 h, 2 µM [29]: 88.5%; Tmax [30]: 0.5 h; C0 at 24 h [31]: 45400 ng/mL; half-life [32]: 5.14 h; Activity (Mycobacterium marinum [33]): 2 10^2CFU; %AUCextra [34]: 3.35%

**Q.** With `CO[C@H]1/C=C/O[C@@]2(C)Oc3c(C)c(O)c4c(O)c(c(/C=N/N5CCN(C)CC5)c(O)c4c3C2=O)NC(=O)/C(C)=C\C=C\[C@H](C)[C@H](O)[C@@H](C)[C@@H](O)[C@@H](C)[C@H](OC(C)=O)[C@@H]1C` [RIFAMPIN] as the compound, how does the MIC [1] read?
**A.** 0.02 µg/mL (≈ 0.0243 µM)

**Q.** What about the Activity (Mycobacterium marinum [35]) of the same compound?
**A.** 1.5 10^2CFU

**Q.** And the selectivity ratio [36]?
**A.** > 5000

**Q.** What about the Activity (Mycobacterium marinum [14]) of the same compound?
**A.** 4 10^4CFU

**Q.** What about the IC50 at 48 h [21] of the same compound?
**A.** > 100 µg/mL

**Q.** For `CCCSc1nc2c(c(=O)[nH]1)[C@@H](c1ccc(OC)cc1[N+](=O)[O-])CC(=O)N2`, which MIC [1] is on record?
**A.** 3 µg/mL (≈ 7.68 µM)

**Q.** And the half-life at 2 µM [2]?
**A.** 5.72 h

**Q.** And the AUClast/dose [3]?
**A.** 26110 kg·ng·h/mL/mg

**Q.** And the Cmax [4]?
**A.** 54000 ng/mL

**Q.** And the AUC(0-inf) [5]?
**A.** 175 µg·h/mL

**Q.** And the half-life [6]?
**A.** 13.1 h

**Q.** And the AUC(0-t) at 24 h [7]?
**A.** 131 µg·h/mL

**Q.** And the Activity (Mycobacterium marinum [8])?
**A.** Active

**Q.** And the AUC(0-inf) [9]?
**A.** 669 µg·h/mL

**Q.** What about the Activity (Mycobacterium marinum [10]) of the same compound?
**A.** <10 CFU

**Q.** What about the AUC(0-t) at 24 h [11] of the same compound?
**A.** 595 µg·h/mL

**Q.** What about the IC50 [12] of the same compound?
**A.** > 30 µM

**Q.** What about the Stability [37] of the same compound?
**A.** Stable

**Q.** What about the MRT inf [13] of the same compound?
**A.** 16.4 h

**Q.** What about the Activity (Mycobacterium marinum [14]) of the same compound?
**A.** 2.5 10^3CFU

**Q.** And the “%AUCextra” value [15]?
**A.** 25.2%

**Q.** What about the half-life at 2 µM [16] of the same compound?
**A.** 3.57 h

**Q.** What about the microsomal CLint at 2 µM [17] of the same compound?
**A.** 6.47 µL/min/mg

**Q.** What about the Activity [38] of the same compound?
**A.** Active

**Q.** And the Activity (Mycobacterium marinum [18])?
**A.** 1.6 10^4CFU

**Q.** What about the IC50 at 48 h [19] of the same compound?
**A.** 41.1 µg/mL (≈ 105 µM)

**Q.** What about the AUClast/dose [20] of the same compound?
**A.** 19820 kg·ng·h/mL/mg

**Q.** What about the IC50 at 48 h [21] of the same compound?
**A.** > 64 µg/mL

**Q.** What about the MRT inf [22] of the same compound?
**A.** 10.1 h

**Q.** And the microsomal CLint at 2 µM [23]?
**A.** 4.04 µL/min/mg

**Q.** And the bioavailability [24]?
**A.** 63.8%

**Q.** What about the clearance [25] of the same compound?
**A.** 0.5 mL/min/kg

**Q.** And the remaining at 1 h, 2 µM [26]?
**A.** 83.3%

**Q.** And the Vd [27]?
**A.** 0.488 L/kg

**Q.** What about the Activity (Mycobacterium marinum [28]) of the same compound?
**A.** 80 CFU

**Q.** What about the remaining at 1 h, 2 µM [29] of the same compound?
**A.** 86.2%

**Q.** And the Tmax [30]?
**A.** 0.417 h

**Q.** And the C0 at 24 h [31]?
**A.** 32300 ng/mL

**Q.** And the half-life [32]?
**A.** 7.95 h

**Q.** And the Activity (Mycobacterium marinum [33])?
**A.** 1 10^2CFU

**Q.** And the “%AUCextra” value [34]?
**A.** 11.2%
